Test results reported in paper PMC10058238 (Science Advances, 2023).

How the values were obtained:
Type in all cases: biochemical
[1] = biological target: T1, AtSPT-ORM1 complex (LCB1, LCB2a, SPTssa, ORM1) (Arabidopsis thaliana, UniProt Q94IB8+Q9C5I0+Q9LSZ9); test: SPT activity, DTNB detection of CoA-SH release, […] nm
T1 construct: full-length codon-optimized cDNAs; N-terminal Flag on SPTssa, other chains untagged; HEK293F, GDN; dimer of 1:1:1:1 protomers; endogenous ceramide copurifies; with Long chain base biosynthesis protein 1; Serine palmitoyltransferase small subunit A

[2] = biological target: T2, AtSPT-ORM1 complex (LCB1, LCB2a, SPTssa, ORM1) (Arabidopsis thaliana, UniProt Q94IB8+Q9C5I0+Q9LSZ9, Q9C5I0:S67R); test: as above
T2 construct: full-length codon-optimized cDNAs; N-terminal Flag on SPTssa, other chains untagged; HEK293F, GDN; dimer of 1:1:1:1 protomers; endogenous ceramide copurifies; with Long chain base biosynthesis protein 1; Serine palmitoyltransferase small subunit A

[3] = biological target: T3, AtSPT-ORM1 complex (LCB1, LCB2a, SPTssa, ORM1) (Arabidopsis thaliana, UniProt Q94IB8+Q9C5I0+Q9LSZ9, Q9C5I0:N17A); test: as above
T3 construct: full-length codon-optimized cDNAs; N-terminal Flag on SPTssa, other chains untagged; HEK293F, GDN; dimer of 1:1:1:1 protomers; endogenous ceramide copurifies; with Long chain base biosynthesis protein 1; Serine palmitoyltransferase small subunit A

[4] = biological target: T4, AtSPT-ORM1 complex (LCB1, LCB2a, SPTssa, ORM1) (Arabidopsis thaliana, UniProt Q94IB8+Q9C5I0+Q9LSZ9, Q9C5I0:DEL2-14); test: as above; details: saturating 100 mM L-serine, 100 μM palmitoyl-CoA, 25 μM PLP, pH 7.5, 30 °C; ceramide site
T4 construct: full-length codon-optimized cDNAs; N-terminal Flag on SPTssa, other chains untagged; HEK293F, GDN; dimer of 1:1:1:1 protomers; endogenous ceramide copurifies; with Long chain base biosynthesis protein 1; Serine palmitoyltransferase small subunit A

[5] = biological target: T5, AtSPT-ORM1 complex (LCB1, LCB2a, SPTssa, ORM1) (Arabidopsis thaliana, UniProt Q94IB8+Q9C5I0+Q9LSZ9, Q9C5I0:W88R); test: as above; details: saturating 100 mM L-serine, 100 μM palmitoyl-CoA, 25 μM PLP, pH 7.5, 30 °C; ceramide site
T5 construct: full-length codon-optimized cDNAs; N-terminal Flag on SPTssa, other chains untagged; HEK293F, GDN; dimer of 1:1:1:1 protomers; endogenous ceramide copurifies; with Long chain base biosynthesis protein 1; Serine palmitoyltransferase small subunit A

[6] = biological target: T6, AtSPT-ORM1 complex (LCB1, LCB2a, SPTssa, ORM1) (Arabidopsis thaliana, UniProt Q94IB8+Q9C5I0+Q9LSZ9, Q9LSZ9:DEL2-5); test: as above
T6 construct: full-length codon-optimized cDNAs; N-terminal Flag on SPTssa, other chains untagged; HEK293F, GDN; dimer of 1:1:1:1 protomers; endogenous ceramide copurifies; with Long chain base biosynthesis protein 1; Serine palmitoyltransferase small subunit A

[7] = biological target: T7, AtSPT-ORM1 complex (LCB1, LCB2a, SPTssa, ORM1) (Arabidopsis thaliana, UniProt Q94IB8+Q9C5I0+Q9LSZ9, Q9C5I0:W20R); test: as above; details: saturating 100 mM L-serine, 100 μM palmitoyl-CoA, 25 μM PLP, pH 7.5, 30 °C; ceramide site
T7 construct: full-length codon-optimized cDNAs; N-terminal Flag on SPTssa, other chains untagged; HEK293F, GDN; dimer of 1:1:1:1 protomers; endogenous ceramide copurifies; with Long chain base biosynthesis protein 1; Serine palmitoyltransferase small subunit A

[8] = biological target: T8, AtSPT-ORM1 complex (LCB1, LCB2a, SPTssa, ORM1) (Arabidopsis thaliana, UniProt Q94IB8+Q9C5I0+Q9LSZ9, Q9C5I0:DEL2-8); test: as above
T8 construct: full-length codon-optimized cDNAs; N-terminal Flag on SPTssa, other chains untagged; HEK293F, GDN; dimer of 1:1:1:1 protomers; endogenous ceramide copurifies; with Long chain base biosynthesis protein 1; Serine palmitoyltransferase small subunit A

[9] = biological target: T9, AtSPT-ORM1 complex (LCB1, LCB2a, SPTssa, ORM1) (Arabidopsis thaliana, UniProt Q94IB8+Q9C5I0+Q9LSZ9, Q9C5I0:N17A/Q9C5I0:S67R); test: as above; details: saturating 100 mM L-serine, 100 μM palmitoyl-CoA, 25 μM PLP, pH 7.5, 30 °C; ceramide site
T9 construct: full-length codon-optimized cDNAs; N-terminal Flag on SPTssa, other chains untagged; HEK293F, GDN; dimer of 1:1:1:1 protomers; endogenous ceramide copurifies; with Long chain base biosynthesis protein 1; Serine palmitoyltransferase small subunit A

[10] = biological target: T10, AtSPT complex (LCB1, LCB2a, SPTssa) (Arabidopsis thaliana, UniProt Q94IB8+Q9LSZ9); test: as above; details: 100 mM L-serine, 100 μM palmitoyl-CoA, 25 μM PLP, pH 7.5, 30 °C; active site in LCB2a/LCB1
T10 construct: full-length codon-optimized cDNAs; N-terminal Flag on SPTssa, other chains untagged; HEK293F, GDN; without ORM1; with Serine palmitoyltransferase small subunit A
T10 sequence (Q9LSZ9 1-489): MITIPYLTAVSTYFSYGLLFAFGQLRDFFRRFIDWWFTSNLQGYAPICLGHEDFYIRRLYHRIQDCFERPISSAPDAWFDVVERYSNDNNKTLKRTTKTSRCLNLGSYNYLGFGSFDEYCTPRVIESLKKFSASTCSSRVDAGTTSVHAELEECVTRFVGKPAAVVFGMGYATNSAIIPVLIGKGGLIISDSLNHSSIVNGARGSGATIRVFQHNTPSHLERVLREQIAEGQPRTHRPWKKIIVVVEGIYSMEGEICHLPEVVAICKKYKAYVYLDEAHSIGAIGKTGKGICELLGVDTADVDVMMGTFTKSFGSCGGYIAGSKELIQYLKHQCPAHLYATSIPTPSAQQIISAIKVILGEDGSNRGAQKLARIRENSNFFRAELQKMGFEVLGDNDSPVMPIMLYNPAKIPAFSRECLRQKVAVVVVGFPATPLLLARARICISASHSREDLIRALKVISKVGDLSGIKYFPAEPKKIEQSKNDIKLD
T10 sequence (Q94IB8 1-482): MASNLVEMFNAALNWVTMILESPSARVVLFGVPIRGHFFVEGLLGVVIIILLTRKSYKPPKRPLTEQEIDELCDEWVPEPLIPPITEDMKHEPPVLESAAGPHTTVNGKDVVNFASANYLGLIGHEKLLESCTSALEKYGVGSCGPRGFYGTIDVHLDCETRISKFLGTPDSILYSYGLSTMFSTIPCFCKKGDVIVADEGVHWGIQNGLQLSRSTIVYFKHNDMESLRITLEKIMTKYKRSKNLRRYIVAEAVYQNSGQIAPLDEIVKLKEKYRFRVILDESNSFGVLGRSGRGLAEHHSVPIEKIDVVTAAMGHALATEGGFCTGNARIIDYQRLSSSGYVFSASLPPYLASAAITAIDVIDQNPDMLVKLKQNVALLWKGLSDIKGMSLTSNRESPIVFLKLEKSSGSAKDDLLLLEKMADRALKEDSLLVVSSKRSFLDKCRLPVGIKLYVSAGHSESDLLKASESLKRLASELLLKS
T10 sequence (A8MSB8 1-56 partner): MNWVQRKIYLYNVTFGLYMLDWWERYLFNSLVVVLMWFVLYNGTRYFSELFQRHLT

[11] = biological target: T1, AtSPT-ORM1 complex (LCB1, LCB2a, SPTssa, ORM1); test: as above; details: 100 mM L-serine, 100 μM palmitoyl-CoA, 25 μM PLP, pH 7.5, 30 °C; active site in LCB2a/LCB1
[12] = biological target: T3, AtSPT-ORM1 complex (LCB1, LCB2a, SPTssa, ORM1); test: SPT activity, DTNB detection of CoA-SH release, […] nm; sigmoidal fit; details: 100 mM L-serine, 25 μM PLP, pH 7.5, 30 °C; active site in LCB2a/LCB1
[13] = biological target: T4, AtSPT-ORM1 complex (LCB1, LCB2a, SPTssa, ORM1); test: as above; details: 100 mM L-serine, 25 μM PLP, pH 7.5, 30 °C; active site in LCB2a/LCB1

T1 sequence (Q9C5I0 1-157, one chain of several): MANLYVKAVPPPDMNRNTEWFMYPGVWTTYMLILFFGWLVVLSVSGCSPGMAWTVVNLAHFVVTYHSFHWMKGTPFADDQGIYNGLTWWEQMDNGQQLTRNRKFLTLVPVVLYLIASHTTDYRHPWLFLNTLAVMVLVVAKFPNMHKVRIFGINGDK
T3 sequence (Q9C5I0 1-157 N17A, one chain of several): as the sequence (Q9C5I0 1-157, one chain of several) above, with N17A counted along it
T4 sequence (Q9C5I0 entry or part of it DEL2-14, one chain of several): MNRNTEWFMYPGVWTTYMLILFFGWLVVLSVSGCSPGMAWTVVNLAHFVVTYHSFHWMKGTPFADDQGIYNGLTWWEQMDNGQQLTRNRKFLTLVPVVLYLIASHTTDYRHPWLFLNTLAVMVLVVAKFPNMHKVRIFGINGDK
T6 sequence (Q9LSZ9 with tags, fused parts or gaps DEL2-5, one chain of several): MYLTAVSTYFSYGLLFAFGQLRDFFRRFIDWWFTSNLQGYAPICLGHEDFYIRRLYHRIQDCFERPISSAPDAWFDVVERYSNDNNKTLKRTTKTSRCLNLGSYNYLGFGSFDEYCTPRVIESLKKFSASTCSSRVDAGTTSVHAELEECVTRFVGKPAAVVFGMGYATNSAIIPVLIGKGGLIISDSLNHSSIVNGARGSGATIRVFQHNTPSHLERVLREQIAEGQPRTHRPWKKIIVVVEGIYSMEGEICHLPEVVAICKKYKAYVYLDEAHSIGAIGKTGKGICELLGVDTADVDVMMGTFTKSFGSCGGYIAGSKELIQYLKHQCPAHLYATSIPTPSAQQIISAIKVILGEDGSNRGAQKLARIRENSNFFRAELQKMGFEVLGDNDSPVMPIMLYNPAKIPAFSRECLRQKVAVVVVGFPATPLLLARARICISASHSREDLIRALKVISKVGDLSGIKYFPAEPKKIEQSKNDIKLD
T6 sequence (Q9C5I0 1-157, stated change not applied, one chain of several): as the sequence (Q9C5I0 1-157, one chain of several) above
T7 sequence (Q9C5I0 1-157 W20R, one chain of several): as the sequence (Q9C5I0 1-157, one chain of several) above, with W20R counted along it
T9 sequence (Q9C5I0 1-157 N17A/S67R, one chain of several): as the sequence (Q9C5I0 1-157, one chain of several) above, with N17A, S67R counted along it
T8 sequence (Q9C5I0 entry or part of it DEL2-8, one chain of several): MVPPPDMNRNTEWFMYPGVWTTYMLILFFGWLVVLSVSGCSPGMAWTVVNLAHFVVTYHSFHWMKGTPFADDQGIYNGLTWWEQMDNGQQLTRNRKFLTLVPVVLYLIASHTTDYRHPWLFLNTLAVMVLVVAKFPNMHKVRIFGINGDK
T2 sequence (Q9C5I0 1-157 S67R, one chain of several): as the sequence (Q9C5I0 1-157, one chain of several) above, with S67R counted along it
T5 sequence (Q9C5I0 1-157 W88R, one chain of several): as the sequence (Q9C5I0 1-157, one chain of several) above, with W88R counted along it

Compound CCCCCCCCCCCCC/C=C/[C@@H](O)[C@H](CO)NC(=O)CCCCC [C6-ceramide] has an IC50 [1] of 3500 nM.
For CCCCCCCCCCCCCC[C@@H](O)[C@@H](O)[C@H](CO)NC(=O)CCCCC [C6-phytoceramide], the IC50 [1] was 320 nM, the IC50 [2] was 1260 nM and the IC50 [3] was 1680 nM. The “SPT activity, DTNB detection of CoA-SH release, 412 nm” value (shortened to “SPT activity, DTNB detection”) [4] was “basically eliminated the inhibitory effect of C6-phytoceramide”, the “SPT activity, DTNB detection” value [5] was “ORM1-W20R or ORM1-W88R mutation also virtually abolished the inhibitory effect of C6-phytoceramide” and the IC50 [6] was 990 nM. The “SPT activity, DTNB detection” value [7] was “ORM1-W20R or ORM1-W88R mutation also virtually abolished the inhibitory effect of C6-phytoceramide”, the IC50 [8] was 1280 nM and the “SPT activity, DTNB detection” value [9] was “ORM1-N17A/S67R double mutation nearly eliminated the inhibitory effect of C6-phytoceramide”.
For CCCCCCC(=O)CCCCCC/C=C/C[C@@H](O)[C@H](O)[C@@](N)(CO)C(=O)O [myriocin], the “inhibition at 10 μM” value [10] was “can be repressed by a potent SPT-specific inhibitor myriocin” and the “inhibition at 10 μM” value [11] was “can be repressed by a potent SPT-specific inhibitor myriocin”.
In the case of CCCCCCCCCCCCCCCC(=O)SCCNC(=O)CCNC(=O)[C@H](O)C(C)(C)COP(=O)(O)OP(=O)(O)OC[C@H]1O[C@@H](n2cnc3c(N)ncnc32)[C@H](O)[C@@H]1OP(=O)(O)O [palmitoyl-CoA], the Khalf [12] is reported as “the Khalf value of the variant toward palmitoyl-CoA was nearly seven times as high” and the Khalf [13] is reported as “the Khalf value of the AtSPT-ORM1 (ORM1-ΔN14) variant toward palmitoyl-CoA was much lower”.
